Active and inactive are the calls of the source. The calls are words filed in the database; no cut-off is given here.
Key:
A549 [1] = test: Inhibition of cell migration in human A549 cells assessed as total number of cells migrated at 40 nM incubated for 12 hrs by crystal violet staining based transwell assay (reference value: 724 +/- 16); assay type: functional
A549 [2] = test: Induction of apoptosis in human A549 cells assessed as necrotic cells at 40 nM incubated for 24 hrs by annexin V-FITC/propidium iodide staining based flow cytometry analysis (reference value: 2.36%); assay type: functional
[3] = Volume of distribution in Sprague-Dawley rat at 1 mg/kg, iv by LC-MS analysis; assay type: ADME, organism-based; conditions: in vivo
[4] = Cmax in Sprague-Dawley rat at 1 mg/kg, iv by LC-MS analysis; assay type: ADME, organism-based; set-up: dose 1 mg/kg, route iv; conditions: in vivo
MDA-MB-231 = test: Antiproliferative activity against human MDA-MB-231 cells assessed as inhibition of cell growth measured after 48 hrs by MTT assay; assay type: functional, cell-based; conditions: MDA-MB-231, 48 h
A549 [5] = test: Induction of apoptosis in human A549 cells assessed as late apoptotic cells at 10 nM incubated for 24 hrs by annexin V-FITC/propidium iodide staining based flow cytometry analysis (reference value: 0.37%); assay type: functional
A549 [6] = test: Antitumor activity against human A549 cells xenografted in BALB/c mouse assessed as upregulation of cleaved PARP expression in tumor at 5 mg/kg, ip administered every other day for 25 days by Western blotting analysis; assay type: functional, organism-based; conditions: time 25.0 day
A549 [7] = test: Induction of cell cycle arrest in human A549 cells assessed as accumulation at G2 phase at 20 nM incubated for 24 hrs by PI staining based flow cytometry (Rvb= 12.49%); assay type: functional
A549 [8] = test: Antiproliferative activity against human A549 cells expressing lentivirus RNAi VTI-96659 assessed as inhibition of cell growth measured after 48 hrs by MTT assay; assay type: functional, cell-based
A549 [9] = test: Induction of apoptosis in human A549 cells assessed as upregulation of Bad protein at 10 to 40 nM measured after 48 hrs by Western blot analysis; assay type: functional, cell-based; conditions: dose 10-40 nM
A549 [10] = test: Antimigratory activity against human A549 cells assessed as inhibition of cell migration at 20 nM and incubated for 12 hrs by scratch wound healing assay (reference value: 29.5 +/- 1.34%); assay type: functional; set-up: scale not given: the % may be the effect or the level left
A549 [11] = test: Antitumor activity against human A549 cells xenografted in ip dosed BALB/c mouse assessed as decrease in Ki-67 expression in tumor administered every other day for 25 days by immunohistochemistry analysis; assay type: functional, organism-based; conditions: dose 10.0 mg/kg, time 25.0 day
B16-F10 [12] = test: Antiproliferative activity against mouse B16-F10 cells assessed as inhibition of cell growth measured after 48 hrs by MTT assay; assay type: functional, cell-based; conditions: B16-F10, 48 h
B16-F10 [13] = test: Antimigratory activity against mouse B16-F10 cells assessed as inhibition of cell migration at 40 nM and incubated for 12 hrs by scratch wound healing assay (reference value: 81.9 +/- 0.64%); assay type: functional; set-up: scale not given: the % may be the effect or the level left
A549 [14] = test: Induction of cell cycle arrest in human A549 cells assessed as accumulation at G2 phase at 10 nM incubated for 24 hrs by PI staining based flow cytometry (Rvb= 12.49%); assay type: functional
A549 [15] = test: Induction of apoptosis in human A549 cells assessed as downregulation of Bcl-2 protein at 10 to 40 nM measured after 48 hrs by Western blot analysis; assay type: functional, cell-based; conditions: dose 10-40 nM
B16-F10 [16] = test: Inhibition of cell migration in mouse B16-F10 cells assessed as total number of cells migrated at 10 nM incubated for 12 hrs by crystal violet staining based transwell assay (reference value: 692 +/- 11); assay type: functional
A549 [17] = test: Induction of apoptosis in human A549 cells assessed as viable cells at 20 nM incubated for 24 hrs by annexin V-FITC/propidium iodide staining based flow cytometry analysis (reference value: 96.44%); assay type: functional; conditions: read-out: Activity
A549 [18] = test: Induction of apoptosis in human A549 cells assessed as necrotic cells at 20 nM incubated for 24 hrs by annexin V-FITC/propidium iodide staining based flow cytometry analysis (reference value: 2.36%); assay type: functional
[19] = Half life in Sprague-Dawley rat at 1 mg/kg, iv by LC-MS analysis; assay type: ADME, organism-based; conditions: in vivo
A549 [20] = test: Antitumor activity against human A549 cells xenografted in BALB/c mouse assessed as tumor weight at 10 mg/kg, ip administered every other day for 25 days; assay type: functional, organism-based; conditions: time 25.0 day
A549 [21] = test: Antitumor activity against human A549 cells xenografted in BALB/c mouse assessed as reduction in AKT phosphorylation at S473 residue in tumor at 5 to 10 mg/kg, ip administered every other day for 25 days by Western blotting analysis; assay type: functional, organism-based; conditions: dose 5-10 mg/kg, time 25.0 day
[22] = Toxicity in BALB/c nude mouse xenografted with human A549 cells assessed as pathological changes in kidney at 5 to 10 mg/kg, ip administered every other day for 25 days by hematoxylin and eosin staining based microscopic analysis; assay type: organism-based; conditions: in vivo, 600 h, dose 5-10 mg/kg, time 25 day
A549 [23] = test: Antitumor activity against human A549 cells xenografted in BALB/c mouse assessed as decrease in CD-31 expression in tumor at 10 mg/kg, ip administered every other day for 25 days by immunohistochemistry analysis; assay type: functional, organism-based; conditions: time 25.0 day
A549 [24] = test: Antitumor activity against human A549 cells xenografted in BALB/c mouse assessed as tumor volume at 10 mg/kg, ip administered every other day for 25 days; assay type: functional; conditions: time 25 day
A549 [25] = test: Antimigratory activity against human A549 cells assessed as inhibition of cell migration at 10 nM and incubated for 12 hrs by scratch wound healing assay (reference value: 29.5 +/- 1.34%); assay type: functional; set-up: scale not given: the % may be the effect or the level left
[26] = Toxicity in BALB/c nude mouse xenografted with human A549 cells assessed as pathological changes in liver at 5 to 10 mg/kg, ip administered every other day for 25 days by hematoxylin and eosin staining based microscopic analysis; assay type: organism-based; conditions: in vivo, 600 h, dose 5-10 mg/kg, time 25 day
A549 [27] = test: Antimigratory activity against human A549 cells assessed as inhibition of cell migration at 40 nM and incubated for 12 hrs by scratch wound healing assay (reference value: 29.5 +/- 1.34%); assay type: functional; set-up: scale not given: the % may be the effect or the level left
A549 [28] = test: Induction of cell cycle arrest in human A549 cells assessed as accumulation at G2 phase at 40 nM incubated for 24 hrs by PI staining based flow cytometry (Rvb= 12.49%); assay type: functional
A549 [29] = test: Induction of apoptosis in human A549 cells assessed as late apoptotic cells at 40 nM incubated for 24 hrs by annexin V-FITC/propidium iodide staining based flow cytometry analysis (reference value: 0.37%); assay type: functional
HepG2 = test: Antiproliferative activity against human HepG2 cells assessed as inhibition of cell growth measured after 48 hrs by MTT assay; assay type: functional, cell-based; conditions: HepG2, 48 h
B16-F10 [30] = test: Antimigratory activity against mouse B16-F10 cells assessed as inhibition of cell migration at 10 nM and incubated for 12 hrs by scratch wound healing assay (reference value: 81.9 +/- 0.64%); assay type: functional; set-up: scale not given: the % may be the effect or the level left
A2780/Taxol = test: Antiproliferative activity against paclitaxel resistant human A2780/Taxol cells assessed as inhibition of cell growth incubated for 48 hrs by MTT assay; assay type: functional, cell-based
A549 [31] = test: Induction of cell cycle arrest in human A549 cells assessed as accumulation at G1 phase at 40 nM incubated for 24 hrs by PI staining based flow cytometry (Rvb= 65.68%); assay type: functional

`COc1cccc(Nc2cc(Nc3cccc(NC(=O)C4CC4)c3)ncn2)c1` gave an Activity (A549 [1]) of 157, an Activity (A549 [2]) of 5.78% and a Vd [3] of 1.3 L/kg. The Cmax [4] was 87.86 ng/mL, the IC50 (MDA-MB-231) was 4.4 nM and the Activity (A549 [5]) was 9.78%. For the same compound, the Activity (A549 [6]) was “Active”, the Activity (A549 [7]) was 33.13% and the Activity (A549 [8]) was “Active”. The Activity (A549 [9]) was “Active”, the Activity (A549 [10]) was 9.8% and the Activity (A549 [11]) was “Dose-Dependent Effect”. For the same compound, the IC50 (B16-F10 [12]) was 3.3 nM, the Activity (B16-F10 [13]) was 29.1% and the Activity (A549 [14]) was 23.37%. For the same compound, the Activity (A549 [15]) was “Active”, the Activity (B16-F10 [16]) was 510 and the viability at 0.02 µM (A549 [17]) was 76%. The Activity (A549 [18]) was 6%, the t1/2 [19] was 13.2 min and the Activity (A549 [20]) was “Active”. The Activity (A549 [21]) was “inactive”, the Activity [22] was “Non-Toxic” and the Activity (A549 [23]) was “Active”. The Activity (A549 [24]) was 63.77%, the Activity (A549 [25]) was 15.8% and the Activity [26] was “Non-Toxic”. It also gave an Activity (A549 [27]) of 6.1%, an Activity (A549 [28]) of 53.15% and an Activity (A549 [29]) of 26.72%. For the same compound, the IC50 (HepG2) was 1.8 nM, the Activity (B16-F10 [30]) was 49.9% and the IC50 (A2780/Taxol) was 132 nM. It also gave an Activity (A549 [31]) of 21.8%.

From ChEMBL document CHEMBL5325400 (Eur J Med Chem, 2023)
